Test results taken from patent US5625046A, “Hydroxyl projecting groups for organic synthesis” (King's College London, priority 1986, dated 1997).

Legend:
[1] = removal of 2'-protecting groups by acidic hydrolysis at 25° C. (HPLC); format: physicochemical; conditions: for t0.99 (calculated time for 99% removal of the 2'-protecting group) / t1/2 (half-time): 25° C.; for t1/2 (half-time): hydrochloric acid or 0.2M glycine hydrochloride buffer; for rate of hydrolysis, times faster at pH 1.0 than at pH 3.0: pH 1.0 vs pH 3.0
Protocol: The removal of 2'-protecting groups by acidic hydrolysis at 25° C. was then investigated. Substrates as indicated below (ca 0.5-1.0 mg) were dissolved in 3.0 ml of hydrochloric acid or 0.2M glycine hydrochloride buffer at the specified pH. Aliquots (0.2 ml) of the reaction solutions were removed after suitable intervals of time, neutralized with triethylammonium bicarbonate and analyzed by HPLC (Jones "APEX ODS" column).
(b) t0.99 =calculated time for 99% removal of the 2'-protecting group.

[2] = concomitant removal of 2'-O-Ctmp group during removal of 5'-O-(9-phenylxanthen-9-yl) group (trifluoroacetic acid/pyrrole in dichloromethane); format: physicochemical; conditions: in the time required for complete removal of the 5'-O-(9-phenylxanthen-9-yl) group, 5.5 mol. equiv. trifluoroacetic acid, 16.5 mol. equiv. pyrrole, room temperature
Protocol: Following the above scheme, the latter compound was then converted by the conventional two-step procedure into the fully-protected dinucleoside phosphate in ca 83% overall yield. When a 0.025M solution of the fully-protected dinucleoside phosphate in dichloromethane was treated with 5.5 mol. equiv. of trifluoroacetic acid and 16.5 mol. equiv. of pyrrole for 30 seconds at room temperature, no starting material remained and the partially-protected dinucleoside phosphate was isolated from the products In 95.5% yield. When the acid treatment of the fully-protected dinucleoside phosphate was extended to 30 minutes under the same conditions, the partially-protected dinucleoside phosphate was isolated in 85% yield. From such results, it may be estimated that less than 0.2% concomitant removal of the 2'-O-Ctmp group occurs in the time required for the complete removal of the 5'-O-(9-phenylxanthen-9-yl) protecting group.

Row | rate of hydrolysis, dependence on pH ([1]; between pH 0.5 and 1.5) | t0.99 (calculated time for 99% removal of the 2'-protecting group) ([1]; pH 0.5) | t1/2 (half-time) ([1]; pH 0.5) | t0.99 (calculated time for 99% removal of the 2'-protecting group) ([1]; pH 1.0) | t1/2 (half-time) ([1]; pH 1.0) | rate of hydrolysis, times faster at pH 1.0 than at pH 3.0 [1] | t0.99 (calculated time for 99% removal of the 2'-protecting group) ([1]; pH 1.5) | t1/2 (half-time) ([1]; pH 1.5) | t0.99 (calculated time for 99% removal of the 2'-protecting group) ([1]; pH 2.0) | t1/2 (half-time) ([1]; pH 2.0) | t0.99 (calculated time for 99% removal of the 2'-protecting group) ([1]; pH 2.5) | t1/2 (half-time) ([1]; pH 2.5) | t0.99 (calculated time for 99% removal of the 2'-protecting group) ([1]; pH 3.0) | t1/2 (half-time) ([1]; pH 3.0) | t0.99 (calculated time for 99% removal of the 2'-protecting group) ([1]; pH 3.5) | t1/2 (half-time) ([1]; pH 3.5) | rate of hydrolysis, dependence on pH (in words) ([1]; with decreasing pH) | stability of protecting group for the desired purposes (in words) [1] | SMILES | effect of vicinal phosphotriester group on acid-catalyzed hydrolysis of Ctmp (in words) [1] | concomitant removal of the 2'-O-Ctmp group [2]
1 | virtually unchanged | 223 min | 33.5 min | 236 min | 35.5 min | ~2.25 times | 233 min | 35 min | 272 min | 41 min | 345 min | 52 min | 532 min | 80 min | 1120 min | 168 min |  |  | COC1(O[C@@H]2[C@H](O)[C@@H](CO)O[C@H]2n2ccc(=O)[nH]c2=O)CCN(c2ccc(C)cc2Cl)CC1 |  | 
2 |  |  |  |  |  |  |  |  | 143 min | 21.5 min | 156 min | 23.5 min |  |  |  |  |  |  | COC1(O[C@@H]2[C@H](OP(=O)(O)OC[C@H]3O[C@@H](n4ccc(=O)[nH]c4=O)[C@H](O)[C@@H]3O)[C@@H](CO)O[C@H]2n2ccc(=O)[nH]c2=O)CCN(c2ccc(C)cc2Cl)CC1 | facilitates the acid-catalyzed hydrolysis | 
3 |  |  |  |  |  |  |  |  |  |  |  |  |  |  |  |  |  |  | COC1(O[C@@H]2[C@H](OP(=O)(OC[C@H]3O[C@@H](n4ccc(=O)[nH]c4=O)[C@H](OC(C)=O)[C@@H]3OC(C)=O)Oc3ccccc3Cl)[C@@H](COC3(c4ccccc4)c4ccccc4Oc4ccccc43)O[C@H]2n2ccc(=O)[nH]c2=O)CCN(c2ccc(C)cc2Cl)CC1 (some centres unmarked) [fully-protected dinucleoside phosphate] |  | less than 0.2%
4 |  |  |  | 6 min | 0.9 min | 140 times |  |  | 136 min | 20.5 min |  |  | 837 min | 126 min |  |  | increases sharply with decreasing pH |  | COC1(O[C@@H]2[C@H](O)[C@@H](CO)O[C@H]2n2ccc(=O)[nH]c2=O)CCOCC1 [reference compound] |  | 
5 |  |  |  | 3300 min | 498 min |  |  |  | 4380 min | 660 min |  |  |  |  |  |  |  | too stable | COC1(O[C@@H]2[C@H](O)[C@@H](CO)O[C@H]2n2ccc(=O)[nH]c2=O)CCN(c2ccccc2)CC1 [reference compound] |  | 
